These results are taken from US20230365584A1, “HETEROCYCLIC PERICONDENSED CDC7 KINASE INHIBITORS FOR THE TREATMENT OF CANCER” (SCHRÖDINGER, INC., priority 2020, published 2023).

SMILES strings stand for the structures. Bounds are passed on as bounds.

For experiment [1], the target named is Full length human CDC7 protein co-expressed with DBF4 (Homo sapiens (Human), UniProt O00311). The experiment in a line: CDC7 kinase biochemical assay (ADP-Glo, PDKtide substrate). The note with it: 0.1 nM CDC7/DBF4, 1 uM ATP, 10 uM PDKtide, 4 h. The gist of the method: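 Reactions contained 0.1 nM CDC7/DBF4, 1 uM ATP and 10 uM PDKtide in 40 mM Tris pH 7.5, 20 mM MgCl2, 0.1 mg/ml BSA and 50 uM DTT, and ran for 4 h. ADP formed was read by ADP-Glo luminescence. Percent inhibition was calculated against DMSO (high) and reference CDC7 inhibitor (low) controls.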
Full length human CDC7 protein co-expressed with DBF4, sequence (O00311 whole entry): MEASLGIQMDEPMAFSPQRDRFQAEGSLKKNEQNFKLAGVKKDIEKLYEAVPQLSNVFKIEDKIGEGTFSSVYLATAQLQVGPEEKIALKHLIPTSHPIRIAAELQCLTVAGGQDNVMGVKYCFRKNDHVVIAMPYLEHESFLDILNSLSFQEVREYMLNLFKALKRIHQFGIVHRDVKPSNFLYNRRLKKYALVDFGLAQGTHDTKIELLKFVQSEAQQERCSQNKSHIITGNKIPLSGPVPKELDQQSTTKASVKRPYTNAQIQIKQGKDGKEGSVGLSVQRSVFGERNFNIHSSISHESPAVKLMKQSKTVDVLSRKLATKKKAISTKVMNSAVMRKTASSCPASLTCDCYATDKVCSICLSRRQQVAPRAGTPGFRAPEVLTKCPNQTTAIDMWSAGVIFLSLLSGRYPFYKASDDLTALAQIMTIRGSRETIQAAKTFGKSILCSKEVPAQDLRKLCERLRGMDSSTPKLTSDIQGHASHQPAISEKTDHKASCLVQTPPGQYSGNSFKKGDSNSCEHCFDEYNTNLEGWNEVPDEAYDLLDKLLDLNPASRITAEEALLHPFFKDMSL
Full length human CDC7 protein co-expressed with DBF4, sequence (Q9UBU7 whole entry partner): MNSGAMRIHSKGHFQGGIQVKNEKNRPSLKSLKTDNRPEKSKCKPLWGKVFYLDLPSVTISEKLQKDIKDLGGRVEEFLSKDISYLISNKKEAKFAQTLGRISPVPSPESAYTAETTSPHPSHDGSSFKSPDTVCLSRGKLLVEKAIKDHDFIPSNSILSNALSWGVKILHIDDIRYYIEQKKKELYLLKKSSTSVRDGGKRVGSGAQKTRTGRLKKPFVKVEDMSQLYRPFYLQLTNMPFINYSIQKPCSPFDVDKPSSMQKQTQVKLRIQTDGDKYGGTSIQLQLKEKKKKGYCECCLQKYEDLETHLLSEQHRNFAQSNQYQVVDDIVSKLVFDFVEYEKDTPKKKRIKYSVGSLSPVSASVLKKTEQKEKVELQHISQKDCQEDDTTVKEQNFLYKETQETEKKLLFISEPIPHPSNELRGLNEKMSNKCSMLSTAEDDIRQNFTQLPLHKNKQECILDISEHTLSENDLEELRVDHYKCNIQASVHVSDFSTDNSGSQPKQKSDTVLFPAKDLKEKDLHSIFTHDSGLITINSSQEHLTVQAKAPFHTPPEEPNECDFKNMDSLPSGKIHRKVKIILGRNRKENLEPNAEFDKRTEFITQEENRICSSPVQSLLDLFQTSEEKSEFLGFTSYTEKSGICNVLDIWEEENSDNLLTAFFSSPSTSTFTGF

In experiment [2] the test system is phosphorylation of MCM2 S53 in colo205 cells. The experiment in a line: Phosphorylated MCM2 MSD electrochemiluminescence assay. Type of experiment: cell-based. To be noted: Homo sapiens, COLO 205, 20 h incubation, read-out: pMCM2-S53 MSD Colo205 IC50. The protocol: Phosphorylated MCM2 MSD Electrochemiluminescence Assay
The effect of CDC7 inhibitors on cellular phosphorylation of the CDC7 substrate MCM2 was determined using the following protocol:
A total of 40,000 colo205 cells in 100 uL culture medium (1640 medium+10% Fetal bovine serum+1% Penicillin-Streptomycin) were plated in 96-well cell culture plates and allowed to attach for 6 hours. 3-fold serial dilutions of test compounds were prepared in completed PBS at 25×final concentration and 4 uL of each were added to the cells and incubated for 20 hours at 37° C., 5% CO2. Each concentration was tested in duplicate. After the 20 h incubation, cells were washed with 150 uL PBS and lysed with 40 uL MSD lysis buffer (obtained from Meso Scale Diagnostics) supplied with 1×complete ULTRA cocktail inhibitor (obtained from Roche). To detect phosphorylation of MCM2 S53, 30 μL of capture antibody solution (obtained from Abnova, catalog number H00004171-MO1, 1:500) was added to each well of MULTI-ARRAY 96-well High Bind Plate, and incubated overnight. The antibody solution was removed, wells blocked with BSA solution and plates washed, followed by addition of 30 ul of cell lysate per well. After 2 h incubation, plates were washed. 30 μL of 1×detection antibody solution (obtained from Abcam, catalog number ab109133, 1:1000) was then added to each well and incubate for 1 hour. Plates were washed and 30 μL of 1×secondary antibody solution (obtained from MSD, catalog number R32AB-1, 1:5000) was added to each well and incubate for 1 hour. Plates were washed and 150 µL of 1×Read Buffer T was added to each well of the MSD plate. The electrochemiluminescence signal was measured on a MESO SECTOR S600 plate reader. The percentage of remaining phosphorylated MCM2 signal was calculated following the equation below.
[formula] • HC (high control): Cells treated with DMSO • Cpds: Cells treated with test compounds • LC (low control): Cells treated with positive control CDC7 inhibitor

`Cc1[nH]c(=O)c2sc(-c3ccncc3)c3c2c1C[C@@H](C)O3` (single isomer, unassigned) [Example 7]: the values for the IC50 in experiment [1] and in experiment [2] were below 1 nM and 100 to 1000 nM, respectively.

Turning to `Cc1[nH]c(=O)c2sc(-c3ccncc3)c3c2c1C[C@H](C)O3` (single isomer, unassigned) [Example 8], the values for the half-inhibitory concentration (IC50) in experiment [1] and in experiment [2] were below 1 nM and 100 to 1000 nM, respectively.

Regarding `C[C@@H](c1[nH]c(=O)c2sc(-c3cn[nH]c3)c3c2c1CCCO3)N1CCC1` (single isomer, unassigned) [Example 30], the results for the IC50 in experiment [1] and in experiment [2] were below 1 nM and below 100 nM, respectively.

As to `C[C@H](c1[nH]c(=O)c2sc(-c3cn[nH]c3)c3c2c1CCCO3)N1CCC1` (single isomer, unassigned) [Example 31], the IC50 in experiment [1] is below 1 nM; in experiment [2] it was below 100 nM.

As to `C[C@H](c1[nH]c(=O)c2sc(-c3cn[nH]c3)c3c2c1CCCO3)n1cccn1` (single isomer, unassigned) [Example 46], the IC50 is below 1 nM in experiment [1] and 100 to 1000 nM in experiment [2].

On to `C[C@@H](c1[nH]c(=O)c2sc(-c3cn[nH]c3)c3c2c1CCCO3)n1cccn1` (single isomer, unassigned) [Example 47], for which the IC50 was below 1 nM in experiment [1] and below 100 nM in experiment [2].

Take `CC[C@](C)(O)c1[nH]c(=O)c2sc(-c3cn[nH]c3)c3c2c1CCCO3` (single isomer, unassigned) [Example 57]: the values for the 50% inhibitory concentration (IC50) in experiment [1] and in experiment [2] were below 1 nM and below 100 nM, respectively.

For the compound `CC[C@@](C)(O)c1[nH]c(=O)c2sc(-c3cn[nH]c3)c3c2c1CCCO3` (single isomer, unassigned) [Example 58], the concentration for half-maximal inhibition (IC50) in experiment [1] is below 1 nM; in experiment [2] it was below 100 nM.

As for `Cc1[nH]c(=O)c2sc(-c3ccncc3)c3c2c1CCCO3` [Example 1, 5-methyl-1-(pyridin-4-yl)-4,6,7,8-tetrahydro-3H-9-oxa-2-thia-4-azabenzo[cd]azulen-3-one], the half-maximal inhibitory concentration (IC50) in experiment [1] is below 1 nM; in experiment [2], 100 to 1000 nM.

With `Cc1[nH]c(=O)c2sc(-c3cn[nH]c3)c3c2c1CCCO3` [Example 5, 5-methyl-1-(1H-pyrazol-4-yl)-4,6,7,8-tetrahydro-3H-9-oxa-2-thia-4-azabenzo[cd]azulen-3-one], the IC50 is below 1 nM in experiment [1] and below 100 nM in experiment [2].

Consider `O=c1[nH]c(CN2CCC2)c2c3c(c(-c4cn[nH]c4)sc13)OCCC2` [Example 13, 5-(azetidin-1-ylmethyl)-1-(1H-pyrazol-4-yl)-4,6,7,8-tetrahydro-3H-9-oxa-2-thia-4-azabenzo[cd]azulen-3-one], for which the half-maximal inhibitory concentration (IC50) in experiment [1] was below 1 nM; in experiment [2], below 100 nM.

In the case of `CC(C)NCc1[nH]c(=O)c2sc(-c3cn[nH]c3)c3c2c1CCCO3` [Example 24, 5-((isopropylamino)methyl)-1-(1H-pyrazol-4-yl)-4,6,7,8-tetrahydro-3H-9-oxa-2-thia-4-azabenzo[cd]azulen-3-one], the IC50 in experiment [1] is below 1 nM; in experiment [2] it was 100 to 1000 nM.

Regarding `CC(C)(O)c1[nH]c(=O)c2sc(-c3cn[nH]c3)c3c2c1CCCO3` [Example 28, 5-(2-hydroxypropan-2-yl)-1-(1H-pyrazol-4-yl)-4,6,7,8-tetrahydro-3H-9-oxa-2-thia-4-azabenzo[cd]azulen-3-one], the half-inhibitory concentration (IC50) in experiment [1] is below 1 nM; in experiment [2], below 100 nM.

In the case of `O=c1[nH]c(CN2CCC2)c2c3c(c(-c4cn[nH]c4)sc13)OCC(F)(F)C2` [Example 44, 7-(azetidin-1-ylmethyl)-10,10-difluoro-2-(1H-pyrazol-4-yl)-12-oxa-3-thia-6-azatricyclo[6.4.1.0^4,13]trideca-1,4(13),7-trien-5-one], the IC50 is below 1 nM in experiment [1] and below 100 nM in experiment [2].

In the case of `O=C(c1[nH]c(=O)c2sc(-c3cn[nH]c3)c3c2c1CCCO3)N1CCCC1` [Example 51, 2-(1H-pyrazol-4-yl)-7-(pyrrolidine-1-carbonyl)-12-oxa-3-thia-6-azatricyclo[6.4.1.0^4,13]-trideca-1,4(13),7-trien-5-one], the results for the concentration for half-maximal inhibition (IC50) in experiment [1] and in experiment [2] were 1 to 10 nM and at least 1000 nM, respectively.

As for `Nc1[nH]c(=O)c2sc(-c3cn[nH]c3)c3c2c1CCCO3` [Example 54, 7-amino-2-(1H-pyrazol-4-yl)-12-oxa-3-thia-6-azatricyclo[6.4.1.0^4,13]trideca-1,4(13),7-trien-5-one], the 50% inhibitory concentration (IC50) was below 1 nM in experiment [1] and at least 1000 nM in experiment [2].

Regarding `O=c1[nH]c(COC2CCC2)c2c3c(c(-c4cn[nH]c4)sc13)OCCC2` [Example 55, 5-(cyclobutoxymethyl)-1-(1H-pyrazol-4-yl)-4,6,7,8-tetrahydro-3H-9-oxa-2-thia-4-azaben-zo[cd]azulen-3-one], the IC50 in experiment [1] was below 1 nM; in experiment [2], below 100 nM.
